Data: US7968558B2, “Amidine derivatives of 2-heteroaryl-quinazolines and quinolines; potent analgesics and anti-inflammatory agents” (Rottapharm S.p.A., priority 2006, dated 2011)
Structures can show the parent of a compound that is named as a salt. Where two headings read alike, the source gives them in different places.

Experiments:
[1] = system: formalin-induced paw licking; experiment: Formalin (licking) test; type: in vivo, mice; conditions: for ED50: Mus musculus, ip
Description: The formalin test is increasingly used as a model of injury-produced pain (FV. Abbott, Pain, 1995, 60, 91-102). The procedure used for the evaluation of the compounds of the invention was similar to that reported by literature (S. Hunskaar, Pain, 1987, 30, 103-104), and consisted of the injection of 20 μl of 1% solution of formalin dissolved in distilled water, in the plantar surface of the right hind paw of the mice. Immediately, the animals were placed individually in an observation chamber. The amount of time that the animal spent licking the injected paw, considered indicative of pain, was recorded during 30 min. following formalin injection. The initial nociceptive scores normally peaked 5 min after formalin injection (early phase) and 15-30 min. after formalin injection (late phase), representing both the neurogenic and inflammatory pain responses respectively.
Animals were treated i.p. with an aqueous solution of the tested compound (doses: 3, 10, 30 mg/Kg), 1 hour before the formalin injection. Control animals received only the vehicle.
In Table 8, the analgesic effect elicited in this test by a representative compound of Formula (I), is expressed as ED50 both for the early and late phase, and compared with the performance of the standard reference, paracetamol.

[2] = system: Zymosan-induced mechanical hyperalgesia; experiment: Zymosan-induced mechanical hyperalgesia (Randall-Selitto); type: in vivo, rat; conditions: for ED50: Rattus norvegicus, read-out: Analgesia ED50; for Analgesia ED100: calculated from linear dose-response
Description: (§1) The interplantar injection of Zymosan-induced mechanical hyperalgesia was used as a model of inflammatory pain (Meller, Neuropharmacology, 1994, 33, 1471-1478). In this model, typically a male Sprague-Dawley or Wistar rat (200-250 g) receives an interplantar injection of 3 mg/100 μl zymosan into one hind paw. A marked inflammation occurs in this hind paw. Drugs are administered orally for evaluation of efficacy, 30 min. before the inflammatory insult. The hyperalgesia induced by zymosan administration was evaluated using the Randall-Selitto method (Arch. Int. Pharmacodyn., 1957, 111, 409). The quantitation of the analgesic effect is achieved by an analgesimeter, which consist in applying to the inflamed paw an increasing weight (from 130-140 g up to 500 g). The difference in the mechanical pain threshold between the basal value (generally 230-250 g) and the one tolerated by the animals treated with the drug, determined 4 hours after the inflammatory challenge, is defined as mechanical hyperalgesia.
(§2) Mechanical hyperalgesia is expressed for the compounds of the invention as ED50, which is the dose of the administered compound able to increase the pain threshold by 50% in comparison with the group of control animals. The corresponding ED100, representing the dose able of reducing of 100% the pain threshold, can be calculated for those cases where there is a linear dose-response relationship. In vivo anti-inflammatory effect exerted by the compound of the invention can be assessed in the same Zymosan induced inflammation test described above, by measuring the volume of the oedema induced by the inflammatory agent. The oedema was evaluated as the increase in the volume of the Zymosan injected paw within a time of 0-2 hrs. The measurements of the variation of the oedema volume of the paw were recorded using hydroplethysmometer, which consists of two plastic cuvettes containing a surfactant liquid, the larger one being used for immersion of the paw, connected to the smaller one which contains a trans-ducer capable of recording small displacements of the volume used for the measure. The paw is immersed in the cuvettes up to the tibiotarsal joint. The volume of the liquid displaced is proportional to the extent of the inflammation. The efficacy of the compounds of the invention in preventing oedema formation is expressed as ED30, and is measured 2 hours after the inflammatory challenge, and represents the dose able of reducing of 30%, the Zymosan induced paw volume increase in comparison to control animals (animals treated with Zymosan but treated with only distilled water instead of the testing compound). The corresponding ED50, representing the dose able of reducing of 50% the zymosan induced paw volume increase, can be calculated for those cases where there is a linear dose-response relationship.
(§3) In both the experiments, for each test compound, at least three doses were used, with 10 animals per group. Compounds of the invention were tested at 10, 20 and 40 mg/Kg.

[3] = system: Zymosan induced paw volume increase; experiment: Zymosan-induced paw oedema; type: in vivo, rat; conditions: for ED50: Rattus norvegicus, read-out: Oedema Reduction ED50; for Oedema Reduction ED30: 2 hours after challenge
Description: as §1, §2, §3

[4] = system: acetic acid-induced abdominal writhes; experiment: Acetic acid-induced writhing test; type: in vivo, mice
Description: With the aim of assessing whether the compounds of the invention are able to inhibit responses to peritoneal irritation-induced visceral pain, the acetic acid-induced writhing assay was used in mice to determine the degree of anti-nociception.
The writhing test is a model of inflammatory pain that has long been used as a screening tool for evaluation of analgesic and anti-inflammatory agents (HDJ Collier, B. J. Pharmacol Chemother., 1968, 32, 295-310). The test was performed inducing nociception by an i.p. injection of acetic acid 1%, 0.1 mL/10 g of body weight. Mice were pre-treated (subcutaneously, s.c., three different doses: 3, 10, 30 mg/Kg) with the tested compounds 30 min. before acetic acid injection, while control animals received a similar volume of saline solution. A group of mice was treated with Paracetamol (200 mg/Kg, s.c.) as reference drug. The number of abdominal writhes (full extension of both hind paws) was cumulatively counted every 5 minutes over a period of 20 min. immediately after the acetic acid injection. The anti-nociceptive activity was expressed as inhibition of abdominal writhes as maximum percent effect (MPE), which represents the difference (%) in pain threshold between the animals treated with the drug and the ones that received only the vehicle.

[5] = system: mechanical hyperalgesia associated with STZ-induced diabetes; experiment: STZ-induced diabetes mechanical hyperalgesia (neuropathic pain); type: in vivo, rat
Description: Streptozotocin (STZ)-induced diabetes in the rat has been increasingly used as a model of painful diabetic neuropathy to assess the efficacies of potential analgesic agents (C. Courteix, Pain 1993, 53, 81-8). The compounds of the invention were tested for efficacy in reducing mechanical hyperalgesia associated with STZ-induced diabetes in the rat, according to the experimental model as described by the literature. Diabetes was produced with the injection of a single dose (75 mg/Kg i.p.) of STZ. In the following four weeks after the induction of diabetes the clinical symptoms (weight, body and skin temperature, motility and hyperglycemia) progressively developed by the animals, are strictly monitored. After four weeks, the scores obtained in diabetic rats to various pain stimuli (in particular mechanical stimuli) were grater than those in normal rats, indicating hyperalgesia. The hyperalgesia induced by diabetes was evaluated using the Randall-Selitto method as above described, and quantitated using the analgesimeter. Also in this case, the difference in the mechanical pain threshold between the basal value (generally 230-250 g) and the one tolerated by the animals treated with the drug, is defined as mechanical hyperalgesia. The compounds of the invention were administered i.p. (solution, Tween 80, 10% in saline) at different doses, and mechanical hyperalgesia was measured at the reported time, as maximum percent effect (MPE) which represents the difference (%) in pain threshold between the animals treated with the drug and the controls that received only the vehicle, compared with the weight borne by naïf non-diabetic controls. A 100% protection means that the diabetic animals treated with the compound can tolerate the same stimulus (weight) as the naïf non-diabetic animals. MPE higher than 100% means that the diabetic animal treated with the compound can tolerate stimuli (weight) higher than the control non-diabetic animals (hypoalgesia).

CFA-induced hyperalgesia = experiment: CFA model of chronic inflammatory pain; type: in vivo, rat
[6] = oral, 30 min before zymosan, 4 hours after challenge
[7] = oral, calculated from linear dose-response

SMILES: COc1ccc2c(c1)c(CC(=O)O)c(C)n2C(=O)c1ccc(Cl)cc1 [Indomethacine]
- Analgesic effect ED50 (mg/Kg) Late phase ([1]; i.p., 1 hour before formalin, late phase): 10 mg/kg

SMILES: CS(=O)(=O)Nc1ccc([N+](=O)[O-])cc1Oc1ccccc1 [Nimesulide, reference compound]
- ED50 [2, 6]: 7.4 mg/kg
- Analgesia ED100 ([2]; oral): 161 mg/kg
- ED50 [3, 7]: 33.4 mg/kg
- Oedema Reduction ED30 ([3]; oral): 0.5 mg/kg

SMILES: CC(=O)Nc1ccc(O)cc1 [Paracetamol]
- MPE (%) ([4]; 200 mg/Kg s.c.): 61%
- ED50 ([1]; 1 hour before formalin, early phase, read-out: Analgesic effect ED50 (mg/Kg) Early phase): 230 mg/kg
- ED50 ([1]; 1 hour before formalin, late phase, read-out: Analgesic effect ED50 (mg/Kg) Late phase): 107 mg/kg

SMILES: Cc1ccc(-c2cc(C(F)(F)F)nn2-c2ccc(S(N)(=O)=O)cc2)cc1 [Celecoxib, reference compound]
- ED50 [2, 6]: 9 mg/kg
- Analgesia ED100 ([2]; oral): 1172 mg/kg
- ED50 [3, 7]: 644 mg/kg
- Oedema Reduction ED30 ([3]; oral): 13.8 mg/kg

SMILES: COc1cccc(C2(O)CCCCC2CN(C)C)c1 (centres unmarked) [Tramadol, reference compound]
- ED50 [2]: 25.7 mg/kg
- Analgesia ED100 ([2]; oral): 405 mg/kg
- MPE 0.5 hrs. ([5]; 3 mg/Kg i.p.): 26%
- MPE 1.5 hrs. ([5]; 3 mg/Kg i.p.): 53%
- MPE 3 hrs. ([5]; 3 mg/Kg i.p.): 7%
- MPE 0.5 hrs. ([5]; 10 mg/Kg i.p.): 58%
- MPE 1.5 hrs. ([5]; 10 mg/Kg i.p.): 48%
- MPE 3 hrs. ([5]; 10 mg/Kg i.p.): 27%
- MPE 0.5 hrs. ([5]; 30 mg/Kg i.p.): 54%
- MPE 1.5 hrs. ([5]; 30 mg/Kg i.p.): 64%
- MPE 3 hrs. ([5]; 30 mg/Kg i.p.): 23%
- MPE 0.5 hrs. ([5]; 50 mg/Kg i.p.): 81%
- MPE 1.5 hrs. ([5]; 50 mg/Kg i.p.): 60%
- MPE 3 hrs. ([5]; 50 mg/Kg i.p.): 43%

SMILES: CC(=N)Nc1ccc2nc(-c3ccc4c(c3)CCO4)ncc2c1 [Example 4, N-[2-(2,3-dihydro-benzofuran-5-yl)quinazolin-6-yl]acetamidine dihydrochloride hemihydrate]
- MPE 1.5 hrs. (CFA-induced hyperalgesia; 3 mg/Kg i.p.): 44%
- MPE 0.5 hrs. (CFA-induced hyperalgesia; 10 mg/Kg i.p.): 47%
- MPE 1.5 hrs. (CFA-induced hyperalgesia; 10 mg/Kg i.p.): 27%
- MPE 3 hrs. (CFA-induced hyperalgesia; 10 mg/Kg i.p.): 25%
- MPE 6 hrs. (CFA-induced hyperalgesia; 10 mg/Kg i.p.): 66%
- MPE 24 hrs. (CFA-induced hyperalgesia; 10 mg/Kg i.p.): 57%
- MPE 0.5 hrs. (CFA-induced hyperalgesia; 30 mg/Kg i.p.): 243%
- MPE 1.5 hrs. (CFA-induced hyperalgesia; 30 mg/Kg i.p.): 270%
- MPE 3 hrs. (CFA-induced hyperalgesia; 30 mg/Kg i.p.): 170%
- MPE 6 hrs. (CFA-induced hyperalgesia; 30 mg/Kg i.p.): 103%
- MPE 24 hrs. (CFA-induced hyperalgesia; 30 mg/Kg i.p.): 76%
- ED50 [2]: 5.8 mg/kg
- Analgesia ED100 ([2]; oral): 17 mg/kg
- ED50 ([3]; po): 170 mg/kg
- Oedema Reduction ED30 ([3]; oral): 25 mg/kg
- MPE 0.5 hrs. ([5]; 3 mg/Kg i.p.): 56%
- MPE 1.5 hrs. ([5]; 3 mg/Kg i.p.): 15%
- MPE 0.5 hrs. ([5]; 10 mg/Kg i.p.): 78%
- MPE 1.5 hrs. ([5]; 10 mg/Kg i.p.): 24%
- MPE 0.5 hrs. ([5]; 30 mg/Kg i.p.): 163%
- MPE 1.5 hrs. ([5]; 30 mg/Kg i.p.): 74%
- MPE (%) ([4]; 3 mg/Kg s.c., 30 min. before acetic acid): 18%
- MPE (%) ([4]; 10 mg/Kg s.c., 30 min. before acetic acid): 41%
- MPE (%) ([4]; 30 mg/Kg s.c., 30 min. before acetic acid): 36%
- ED50 ([4]; Mus musculus, sc): 59.6 mg/kg

SMILES: CN(C)CCC=C1c2ccccc2CCc2ccccc21 [Amitriptyline, reference compound]
- MPE 0.5 hrs. ([5]; 1 mg/Kg i.p.): 72%
- MPE 1.5 hrs. ([5]; 1 mg/Kg i.p.): 89%
- MPE 0.5 hrs. ([5]; 3 mg/Kg i.p.): 44%
- MPE 1.5 hrs. ([5]; 3 mg/Kg i.p.): 40%
- MPE 3 hrs. ([5]; 3 mg/Kg i.p.): 5%
- MPE 0.5 hrs. ([5]; 10 mg/Kg i.p.): 68%
- MPE 1.5 hrs. ([5]; 10 mg/Kg i.p.): 77%
- MPE 0.5 hrs. ([5]; 30 mg/Kg i.p.): 65%
- MPE 1.5 hrs. ([5]; 30 mg/Kg i.p.): 69%
- MPE 3 hrs. ([5]; 30 mg/Kg i.p.): 23%

SMILES: CN1CC[C@]23c4c5ccc(O)c4O[C@H]2[C@@H](O)C=C[C@H]3[C@H]1C5 [Morphine]
- ED50 ([1]; read-out: Analgesic effect ED50 (mg/Kg) Early phase): 4 mg/kg
- ED50 ([1]; read-out: Analgesic effect ED50 (mg/Kg) Late phase): 4 mg/kg

SMILES: CN1C(C(=O)Nc2ccccn2)=C(O)c2ccccc2S1(=O)=O [Piroxicam, reference compound]
- MPE 0.5 hrs. (CFA-induced hyperalgesia; 30 mg/Kg i.p.): 102%
- MPE 1.5 hrs. (CFA-induced hyperalgesia; 30 mg/Kg i.p.): 111%
- MPE 3 hrs. (CFA-induced hyperalgesia; 30 mg/Kg i.p.): 54%
- MPE 6 hrs. (CFA-induced hyperalgesia; 30 mg/Kg i.p.): 24%
- MPE 24 hrs. (CFA-induced hyperalgesia; 30 mg/Kg i.p.): 38%
